Holding throughout (assay): MIC, agar dilution test (isosensitest medium)
What all share (assay type): cell-based

The subject of one test is E. coli 4418. The settings on record: Escherichia coli. An excerpt:
(§1) Agar dilution test (isosensitest medium); Denley multipoint inoculator

The test system of another test is E. coli A 261. The settings on record: Escherichia coli, A261.
Source text: as §1

In the next test the test system is E. coli T 7. The settings on record: Escherichia coli, T7.
Source text: as §1

The next test relates to Klebsiella 57 USA.
Source text: as §1

The next test concerns Klebsiella 6318.
Source text: as §1

The next test deals with Klebsiella 63.
Source text: as §1

The test system of another test is Proteus 1875.
Source text: as §1

Another test deals with Proteus Vulg. 1017.
Source text: as §1

Another test deals with Providencia 12012.
Source text: as §1

Another test has as its system Pseudomonas Ellsworth.
Source text: as §1

A further test concerns Pseudomonas Walter.
Source text: as §1

Another test relates to Staph. 133.
Source text: as §1

A further test deals with Staph. 1756.
Source text: as §1

Another test relates to Staph. F 422.
Source text: as §1

A further test concerns Strepto 9790.
Source text: as §1

Where [1] appears, read: E. coli 4418, agar dilution, read-out: MIC.
Setting [2] is: Klebsiella 57 USA, agar dilution, read-out: MIC.
Setting [3] is: Klebsiella 6318, agar dilution, read-out: MIC.
Setting [4] is: Klebsiella 63, agar dilution, read-out: MIC.
The mark [5] stands for this setting: Proteus 1875, agar dilution, read-out: MIC.
Where [6] appears, read: Proteus Vulg. 1017, agar dilution, read-out: MIC.

Values after ≈ are worked out from the molar mass of the structure shown. Where two headings read alike, the source gives them in different places. A value given as a limit tells only on which side of the number the result lay.

Take `CC1COc2c(N3CCN(C)CC3)c(F)cc3c(=O)c(C(=O)O)cn1c23` (racemic) [Ofloxacin, reference compound]: the minimum inhibitory concentration (MIC) was 0.25 µg/mL (≈ 0.692 µM) with E. coli 4418 (setting [1]); 0.03 µg/mL (≈ 0.083 µM) in the test on E. coli A 261; 0.06 µg/mL (≈ 0.166 µM) in the test with E. coli T 7; 0.25 µg/mL (≈ 0.692 µM) in the test on Klebsiella 57 USA (setting [2]); 0.25 µg/mL (≈ 0.692 µM) in the test with Klebsiella 6318 (setting [3]); 0.125 µg/mL (≈ 0.346 µM) against Klebsiella 63 (Klebsiella, 63). In addition, the MIC against Proteus 1875 was determined as 0.125 µg/mL (≈ 0.346 µM); against Proteus Vulg. 1017 it was 0.125 µg/mL (≈ 0.346 µM); against Providencia 12012, 0.25 µg/mL (≈ 0.692 µM); in the test with Pseudomonas Ellsworth, 0.5 µg/mL (≈ 1.38 µM); in the test with Pseudomonas Walter it was 2 µg/mL (≈ 5.53 µM); in the test on Staph. 133 it was 0.5 µg/mL (≈ 1.38 µM). The MIC in the test on Staph. 1756 worked out at 0.5 µg/mL (≈ 1.38 µM); in the test with Staph. F 422, 0.5 µg/mL (≈ 1.38 µM); against Strepto 9790, 2 µg/mL (≈ 5.53 µM).

As to `C[C@H]1COc2c(N3CCN(C)CC3)c(F)cc3c(=O)c(C(=O)O)cn1c23` [Example 4, 3S-9-fluoro-3-methyl-10(4-methyl-1-piperazinyl)-7-oxo-7H-pyrido[1,2,3-de][1,4]-benzoxazine-6-carboxylic acid], the minimal inhibitory concentration (MIC) against E. coli 4418 (4418) was 0.125 µg/mL (≈ 0.346 µM); against E. coli A 261, at most 0.015 µg/mL; against E. coli T 7, 0.03 µg/mL (≈ 0.083 µM); in the test with Klebsiella 57 USA (Klebsiella, 57USA), 0.125 µg/mL (≈ 0.346 µM); with Klebsiella 6318 (Klebsiella, 6318), 0.125 µg/mL (≈ 0.346 µM); in the test with Klebsiella 63 (setting [4]) it was 0.06 µg/mL (≈ 0.166 µM). Moreover, the MIC with Proteus 1875 (setting [5]) amounted to 0.06 µg/mL (≈ 0.166 µM); in the test on Proteus Vulg. 1017 (setting [6]) it was 0.06 µg/mL (≈ 0.166 µM); against Providencia 12012, 0.06 µg/mL (≈ 0.166 µM); against Pseudomonas Ellsworth, 0.25 µg/mL (≈ 0.692 µM); against Pseudomonas Walter, 1 µg/mL (≈ 2.77 µM); against Staph. 133, 0.25 µg/mL (≈ 0.692 µM). The minimum inhibitory concentration (MIC) is 0.25 µg/mL (≈ 0.692 µM) in the test on Staph. 1756, 0.25 µg/mL (≈ 0.692 µM) against Staph. F 422 and 1 µg/mL (≈ 2.77 µM) against Strepto 9790.

Consider `C[C@@H]1COc2c(N3CCN(C)CC3)c(F)cc3c(=O)c(C(=O)O)cn1c23` [Example 16, 3R-9-fluoro-3-methyl-10(4-methyl-1-piperazinyl)-7-oxo-7H-pyrido[1,2,3-de][1,4]-benzoxazine-6-carboxylic acid], for which the MIC was determined as 2 µg/mL (≈ 5.53 µM) in the test with E. coli 4418 (setting [1]); 0.25 µg/mL (≈ 0.692 µM) against E. coli A 261; 1 µg/mL (≈ 2.77 µM) against E. coli T 7; 4 µg/mL (≈ 11.1 µM) in the test with Klebsiella 57 USA (setting [2]); 4 µg/mL (≈ 11.1 µM) in the test with Klebsiella 6318 (setting [3]); 2 µg/mL (≈ 5.53 µM) in the test with Klebsiella 63 (setting [4]). For the same compound, the minimal inhibitory concentration (MIC) amounted to 4 µg/mL (≈ 11.1 µM) with Proteus 1875 (setting [5]); 2 µg/mL (≈ 5.53 µM) in the test on Proteus Vulg. 1017 (setting [6]); 4 µg/mL (≈ 11.1 µM) in the test on Providencia 12012; 4 µg/mL (≈ 11.1 µM) in the test on Pseudomonas Ellsworth; 32 µg/mL (≈ 88.6 µM) with Pseudomonas Walter; 8 µg/mL (≈ 22.1 µM) against Staph. 133. Also, the figures for the MIC against Staph. 1756, in the test with Staph. F 422 and with Strepto 9790 were 8 µg/mL (≈ 22.1 µM), 16 µg/mL (≈ 44.3 µM) and 32 µg/mL (≈ 88.6 µM), respectively.

The values above are taken from patent US5237060A, “Process of preparing enantiomerically pure 1,8-bridged 4-quinolone-3-carboxylic acids” (Bayer Aktiengesellschaft, priority 1985, dated 1993).
